Patent US10759813B2, “Neprilysin inhibitors” (THERAVANCE BIOPHARMA R&D IP, LLC, priority 2010, dated 2020)

Target: human neprilysin (EC 3.4.24.11; NEP) (Homo sapiens (Human), UniProt P08473)
Test: In vitro enzyme inhibition assay at human NEP (fluorogenic peptide substrate)
Assay type: biochemical
Conditions: pKi values at human NEP, recombinant human NEP
Procedure: In Vitro Assays for the Quantitation of Inhibitor Potencies at Human and Rat NEP, and Human ACE
The inhibitory activities of compounds at human and rat neprilysin (EC 3.4.24.11; NEP) and human angiotensin converting enzyme (ACE) were determined using in vitro assays as described below.
Recombinant human NEP and recombinant human ACE were obtained commercially (R&D Systems, Minneapolis, Minn., catalog numbers 1182-ZN and 929-ZN, respectively). The fluorogenic peptide substrate Mca-D-Arg-Arg-Leu-Dap-(Dnp)-OH (Medeiros et al. (1997) Braz. J. Med. Biol. Res. 30:1157-62; Anaspec, San Jose, Calif.) and Abz-Phe-Arg-Lys(Dnp)-Pro-OH (Araujo et al. (2000) Biochemistry 39:8519-8525; Bachem, Torrance, Calif.) were used in the NEP and ACE assays respectively.
The assays were performed in 384-well white opaque plates at 37° C. using the fluorogenic peptide substrates at a concentration of 10 μM in Assay Buffer (NEP: 50 mM HEPES, pH 7.5, 100 mM NaCl, 0.01% polyethylene glycol sorbitan monolaurate (Tween-20), 10 μM ZnSO4; ACE: 50 mM HEPES, pH 7.5, 100 mM NaCl, 0.01% Tween-20, 1 μM ZnSO4).
Test compounds were assayed over the range of concentrations from 10 μM to pM. Test compounds were added to the enzymes and incubated for 30 minute at 37° C. prior to initiating the reaction by the addition of substrate. Reactions were terminated after 20 minutes of incubation at 37° C. by the addition of glacial acetic acid to a final concentration of 3.6% (v/v).
Plates were read on a fluorometer with excitation and emission wavelengths set to 320 nm and 405 nm, respectively. Inhibition constants were obtained by nonlinear regression of the data using the equation (GraphPad Software, Inc., San Diego, Calif.): v=v0/[1+(I/K′)] where v is the reaction rate, v0 is the uninhibited reaction rate, I is the inhibitor concentration and K′ is the apparent inhibition constant.
Compounds of the invention were tested in this assay and found to have pKi values at human NEP as follows.

human neprilysin (EC 3.4.24.11; NEP), sequence (P08473 52-750): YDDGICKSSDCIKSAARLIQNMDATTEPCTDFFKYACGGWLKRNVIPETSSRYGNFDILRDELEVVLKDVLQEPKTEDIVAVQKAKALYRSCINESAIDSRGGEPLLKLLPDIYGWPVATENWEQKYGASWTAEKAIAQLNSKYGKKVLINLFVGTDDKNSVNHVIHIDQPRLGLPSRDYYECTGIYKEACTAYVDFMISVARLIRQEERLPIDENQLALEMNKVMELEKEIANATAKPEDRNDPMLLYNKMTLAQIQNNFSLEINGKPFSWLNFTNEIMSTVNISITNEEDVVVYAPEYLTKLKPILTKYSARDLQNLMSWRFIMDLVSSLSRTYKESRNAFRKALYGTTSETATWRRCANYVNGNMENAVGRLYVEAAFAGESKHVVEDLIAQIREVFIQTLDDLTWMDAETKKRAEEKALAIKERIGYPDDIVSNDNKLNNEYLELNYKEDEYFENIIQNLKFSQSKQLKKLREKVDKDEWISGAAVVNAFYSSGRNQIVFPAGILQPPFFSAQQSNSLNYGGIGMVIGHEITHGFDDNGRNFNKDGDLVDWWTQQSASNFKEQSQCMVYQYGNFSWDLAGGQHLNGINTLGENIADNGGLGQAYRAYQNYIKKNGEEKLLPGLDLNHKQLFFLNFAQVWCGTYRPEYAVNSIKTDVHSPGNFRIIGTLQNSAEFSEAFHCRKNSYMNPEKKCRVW

SMILES	pKi	Ki
O=C(N[C@H](Cc1ccc(-c2ccccc2)cc1)C[C@@H](O)C(=O)O)c1cc(-c2ccccc2O)[nH]n1 [Example 15-28, (2R,4R)-5-Biphenyl-4-yl-2-hydroxy-4-{[5-(2-hydroxy-phenyl)-1H-pyrazole-3-carbonyl]-amino}-pentanoic acid]	≥9.0	
O=C(O)c1cccc(Cn2nnc3cc(C(=O)N[C@H](Cc4ccc(-c5ccccc5)cc4)CC(O)C(=O)O)ccc32)c1 (stereo partly drawn) [Example 11-1, 3-[5-((R)-1-Biphenyl-4-ylmethyl-3-carboxy-3-hydroxypropylcarbamoyl)-benzotriazol-1-ylmethyl]-benzoic acid]		1.26 to 10 nM
O=C(N[C@H](Cc1ccc(-c2ccccc2)cc1)C[C@@H](O)C(=O)O)c1cc(NC(=O)c2ccccc2Cl)on1 [Example 12-22, (2R,4R)-5-Biphenyl-4-yl-4-{[5-(2-chlorobenzoylamino)-isoxazole-3-carbonyl]-amino}-2-hydroxy-pentanoic acid]	≥9.0	
O=C(N[C@H](Cc1ccc(-c2ccccc2)cc1)C[C@@H](O)C(=O)O)c1cnn[nH]1 [Example 10-2, (2R,4R)-5-Biphenyl-4-yl-2-hydroxy-4-[(3H-[1,2,3]triazole-4-carbonyl)amino]pentanoic acid]		1.26 to 10 nM
O=C(Nc1cc(C(=O)N[C@H](Cc2ccc(-c3ccccc3)cc2)CC(O)C(=O)O)[nH]n1)c1ccccn1 (stereo partly drawn) [Example 15-100, (R)-5-Biphenyl-4-yl-2-hydroxy-4-({5-[(pyridine-2-carbonyl)-amino]-2H-pyrazole-3-carbonyl}-amino)-pentanoic acid]		1.26 to 10 nM
O=C(N[C@H](Cc1ccc(-c2ccccc2)cc1)CC(O)C(=O)O)c1cc(C(=O)O)n(Cc2cc(F)cc(Cl)c2)n1 (stereo partly drawn) [Example 15-11, 5-((R)-1-Biphenyl-4-ylmethyl-3-carboxy-3-hydroxy-propylcarbamoyl)-2-(3-chloro-5-fluorobenzyl)-2H-pyrazole-3-carboxylic acid]		1.26 to 10 nM
O=C(N[C@H](Cc1ccc(-c2ccccc2)cc1)C[C@@H](O)C(=O)O)c1cc2n(n1)COc1ccccc1-2 [Example 16-6, (2R,4R)-5-Biphenyl-4-yl-2-hydroxy-4-[(5-oxa-3,3a-diaza-cyclopenta[a]naphthalene-2-carbonyl)-amino]-pentanoic acid]		1.26 to 10 nM
O=C(N[C@H](Cc1ccc(-c2ccccc2)cc1)CC(O)C(=O)O)c1ccc2[nH]nnc2c1Cl (stereo partly drawn) [Example 11-7, (R)-5-Biphenyl-4-yl-4-[(4-chloro-1H-benzotriazole-5-carbonyl)amino]-2-hydroxy-pentanoic acid]		1.26 to 10 nM
O=C(N[C@H](Cc1ccc(-c2ccccc2)cc1)CC(O)C(=O)O)c1cc(C(=O)O)n(Cc2ccc(Cl)c(OC(F)(F)F)c2)n1 (stereo partly drawn) [Example 15-12, 5-((R)-1-Biphenyl-4-ylmethyl-3-carboxy-3-hydroxy-propylcarbamoyl)-2-(4-chloro-3-trifluoromethoxybenzyl)-2H-pyrazole-3-carboxylic acid]		12.6 to 100 nM
CC(=O)OCOn1nncc1C(=O)N[C@H](Cc1ccc(-c2cc(Cl)ccc2F)cc1)C[C@@H](O)C(=O)O [Example 19-18, (2R,4R)-4-[(3-Acetoxymethoxy-3H-[1,2,3]triazole-4-carbonyl)-amino]-5-(5′-chloro-2′-fluoro-biphenyl-4-yl)-2-hydroxy-pentanoic acid]	≥9.0	
O=C(N[C@H](Cc1ccc(-c2ccccc2)cc1)C[C@@H](O)C(=O)O)c1cc(-c2cccnc2)[nH]n1 [Example 15-21, (2R,4R)-5-Biphenyl-4-yl-2-hydroxy-4-[(5-pyridin-3-yl-1H-pyrazole-3-carbonyl)-amino]-pentanoic acid]	≥9.0	
O=C(N[C@H](Cc1ccc(-c2ccccc2)cc1)CC(O)C(=O)O)c1cc(F)c2[nH]nnc2c1 (stereo partly drawn) [Example 11-4, (R)-5-Biphenyl-4-yl-4-[(7-fluoro-1H-benzotriazole-5-carbonyl)amino]-2-hydroxy-pentanoic acid]		1.26 to 10 nM
O=C(N[C@H](Cc1ccc(-c2ccccc2)cc1)C[C@@H](O)C(=O)O)c1cnc(O)nc1 [Example 6-B, (2R,4R)-5-Biphenyl-4-yl-2-hydroxy-4-[(2-hydroxypyrimidine-5-carbonyl)amino]pentanoic Acid]	≥9.0	
O=C(N[C@H](Cc1ccc(-c2ccccc2)cc1)C[C@@H](O)C(=O)O)c1cc2n(n1)C[C@H](O)COc1ccccc1-2 [Example 16-4, (2R,4R)-5-Biphenyl-4-yl-2-hydroxy-4-[((S)-8-hydroxy-10-oxa-5,6-diaza-tricyclo[9.4.0.02,6]pentadeca-1(15),2,4,11,13-pentaene-4-carbonyl)-amino]-pentanoic acid]		1.26 to 10 nM
O=C(N[C@H](Cc1ccc(-c2ccccc2)cc1)CC(O)C(=O)O)c1cc(C2CC2)n[nH]1 (stereo partly drawn) [Example 15-72, (R)-5-Biphenyl-4-yl-4-[(5-cyclopropyl-2H-pyrazole-3-carbonyl)-amino]-2-hydroxy-pentanoic acid]		12.6 to 100 nM
O=C(N[C@H](Cc1ccc(-c2ccccc2)cc1)CC(O)C(=O)O)c1nc[nH]n1 (stereo partly drawn) [Example 10-6, (R)-5-Biphenyl-4-yl-2-hydroxy-4-[(1H-[1,2,4]triazole-3-carbonyl)amino]pentanoic acid]		12.6 to 100 nM
O=C(N[C@H](Cc1ccc(-c2ccccc2)cc1)C[C@@H](O)C(=O)O)c1cc(CO)[nH]n1 [Example 15-3, (2R,4R)-5-Biphenyl-4-yl-2-hydroxy-4-[(5-hydroxymethyl-1H-pyrazole-3-carbonyl)-amino]-pentanoic acid]		1.26 to 10 nM
O=C(N[C@H](Cc1ccc(-c2ccccc2)cc1)C[C@H](O)C(=O)O)c1cnc2[nH]nnc2c1 [Example 11-13, (2S,4R)-5-Biphenyl-4-yl-2-hydroxy-4-[(3H-[1,2,3]triazolo[4,5-b]pyridine-6-carbonyl)-amino]-pentanoic acid]	≥9.0	
O=C(N[C@H](Cc1ccc(-c2ccccc2)cc1)CC(O)C(=O)O)c1cc(-c2ccc3ccccc3c2)[nH]n1 (stereo partly drawn) [Example 15-38, (R)-5-Biphenyl-4-yl-2-hydroxy-4-[(5-naphthalen-2-yl-1H-pyrazole-3-carbonyl)amino]-pentanoic acid]		1.26 to 10 nM

Other lines, results leading:

pKi	Ki	SMILES
≥9.0		O=C(N[C@H](Cc1ccc(-c2cc(Cl)ccc2Cl)cc1)C[C@@H](O)C(=O)O)c1cn(O)nn1 [Example 19-1, (2R,4R)-5-(2′,5′-Dichlorobiphenyl-4-yl)-2-hydroxy-4-[(1-hydroxy-1H-[1,2,3]triazole-4-carbonyl)-amino]-pentanoic acid]
≥9.0		O=C(N[C@H](Cc1ccc(-c2cccc(Cl)c2)cc1)C[C@@H](O)C(=O)O)c1nnc(C(F)(F)F)[nH]1 [Example 18-45, (2R,4R)-5-(3′-Chlorobiphenyl-4-yl)-2-hydroxy-4-[(5-trifluoromethyl-4H-[1,2,4]triazole-3-carbonyl)-amino]-pentanoic acid]
≥9.0		O=C(N[C@H](Cc1ccc(-c2cccc(Cl)c2)cc1)C[C@@H](O)C(=O)O)c1cc(-c2ccccn2)n[nH]1 [Example 18-23, (2R,4R)-5-(3′-Chlorobiphenyl-4-yl)-2-hydroxy-4-[(5-pyridin-2-yl-2H-pyrazole-3-carbonyl)-amino]-pentanoic acid]
≥9.0		CC(O)c1cc(C(=O)N[C@H](Cc2ccc(-c3cccc(Cl)c3)cc2)C[C@@H](O)C(=O)O)[nH]n1 (stereo partly drawn) [Example 18-32, (2R,4R)-5-(3′-Chloro-biphenyl-4-yl)-2-hydroxy-4-{[5-(1-hydroxy-ethyl)-2H-pyrazole-3-carbonyl]-amino}-pentanoic acid]
≥9.0		O=C(N[C@H](Cc1ccc(-c2cccc(Cl)c2)cc1)C[C@@H](O)C(=O)O)c1cc(O)n(-c2ccccc2F)n1 [Example 18-38, (2R,4R)-5-(3′-Chloro-biphenyl-4-yl)-4-{[1-(2-fluoro-phenyl)-5-hydroxy-1H-pyrazole-3-carbonyl]-amino}-2-hydroxy-pentanoic acid]
≥9.0		Cc1ccc(Cl)cc1-c1ccc(C[C@H](C[C@@H](O)C(=O)O)NC(=O)c2cn(O)nn2)cc1 [Example 19-12, (2R,4R)-5-(5′-Chloro-2′-methyl-biphenyl-4-yl)-2-hydroxy-4-[(1-hydroxy-1H-[1,2,3]triazole-4-carbonyl)-amino]-pentanoic acid]
≥9.0		COc1ccccc1C(=O)Nc1cc(C(=O)N[C@H](Cc2ccc(-c3cccc(Cl)c3)cc2)C[C@@H](O)C(=O)O)[nH]n1 [Example 18-31, (2R,4R)-5-(3′-Chloro-biphenyl-4-yl)-2-hydroxy-4-{[5-(2-methoxy-benzoylamino)-2H-pyrazole-3-carbonyl]-amino}-pentanoic acid]
≥9.0		CC(=O)c1cc(C(=O)N[C@H](Cc2ccc(-c3ccccc3)cc2Cl)C[C@@H](O)C(=O)O)[nH]n1 [Example 20-7, (2R,4R)-4-[(5-Acetyl-2H-pyrazole-3-carbonyl)-amino]-5-(3-chloro-biphenyl-4-yl)-2-hydroxy-pentanoic acid]
